Reference: patent US11034672B1, “Tyrosine kinase inhibitor compositions, methods of making and methods of use” (Black Diamond Therapeutics, Inc., priority 2018, dated 2021)

Legend:
Assay type in all cases: cell-based
EGFR WT [1] = molecular target: T1, EGFR WT (Homo sapiens, UniProt P00533); test: Activity for inhibiting EGFR (Table A), EGFR WT; conditions: read-out: EGFR WT, potency code (IC50)
EGFR V3 [2] = molecular target: T2, EGFR V3 (Homo sapiens, UniProt P00533, DELINS30-297G); test: Activity for inhibiting EGFR (Table A), EGFR V3 (EGFR-Viii); conditions: read-out: EGFR V3, potency code (IC50)
T2 construct: expressed in transfected cells; host or cells: BaF3 (murine pro-B), retroviral pMXs-IRES-Blasticidin

EGFR NPH [3] = molecular target: T3, EGFR NPH (Homo sapiens, UniProt P00533, DUP771-773); test: Activity for inhibiting EGFR (Table A), EGFR NPH; conditions: read-out: EGFR NPH, potency code (IC50)
T3 construct: expressed in transfected cells; host or cells: BaF3 (murine pro-B), retroviral pMXs-IRES-Blasticidin

EGFR SVD [4] = molecular target: T4, EGFR SVD (Homo sapiens, UniProt P00533, DUP768-770); test: Activity for inhibiting EGFR (Table A), EGFR SVD; conditions: read-out: EGFR SVD, potency code (IC50)
T4 construct: expressed in transfected cells; host or cells: BaF3 (murine pro-B), retroviral pMXs-IRES-Blasticidin

HER2 WT [5] = molecular target: T5, HER2 WT (Homo sapiens, UniProt P04626); test: Activity for inhibiting HER2 (Table B), HER2 WT
HER2 S310F [6] = molecular target: T6, HER2 S310F (Homo sapiens, UniProt P04626, S310F); test: Activity for inhibiting HER2 (Table B), HER2 S310F; conditions: read-out: HER2 S310F, potency code (IC50)
T6 construct: expressed in transfected cells; host or cells: BaF3 (murine pro-B)
Procedure: (§1) EC50 values were determined with the same application.

EGFR WT [7] = molecular target: T1, EGFR WT; test: BaF3 cell proliferation assay, EGFR WT (Table A); conditions: potency code, 3 days, CellTiterGlo, read-out: EGFR WT (Activity for Inhibiting EGFR)
In short: (§2)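 Readout: EC50 for BaF3 proliferation. Cells stably expressing the receptor variant were generated by retrovirus and IL-3 independence.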

EGFR V3 [8] = molecular target: T2, EGFR V3; test: BaF3 cell proliferation assay, EGFR V3 (Table A); conditions: potency code, 3 days, CellTiterGlo, read-out: EGFR V3 (Activity for Inhibiting EGFR)
In short: as §2

EGFR NPH [9] = molecular target: T3, EGFR NPH; test: BaF3 cell proliferation assay, EGFR NPH (Table A); conditions: potency code, 3 days, CellTiterGlo, read-out: EGFR NPH (Activity for Inhibiting EGFR)
Procedure: (§3) Retroviral Production: EGFR mutants were subcloned into pMXs-IRES-Blasticidin (RTV-016, Cell Biolabs, San Diego, Calif.). Retroviral expression vector retrovirus was produced by transient transfection of HEK 293T cells with the retroviral EGFR mutant expression vector pMXs-IRES-Blasticidin (RTV-016, Cell Biolabs), pCMV-Gag-Pol vector and pCMV-VSV-G-Envelope vector. Briefly, HEK 293T/17 cells were plated in 100 mm collagen coated plate (354450, Corning Life Sciences, Tewksbury, Mass.) (4×10^5 per plate) and incubated overnight. The next day, retroviral plasmids (3 μg of EGFR mutant, 1.0 μg of pCMV-Gag-Pol and 0.5 μg pCMV-VSV-G) were mixed in 500 μl of Optimem (31985, Life Technologies). The mixture was incubated at room temperature for 5 min and then added to Optimem containing transfection reagent Lipofectamine (11668, Invitrogen) and incubated for 20 minutes. Mixture was then added dropwise to HEK 293T cells. The next day the medium was replaced with fresh culture medium and retrovirus was harvested @ 24 and 48 hrs.
(§4) Generation of EGFR mutant stable cell lines: BaF3 cells (1.5E5 cells) were infected with 1 ml of viral supernatant supplemented with 8 μg/ml polybrene by centrifuging for 30 min at 1000 rpm. Cells were placed in a 37° C. incubator overnight. Cells were then spun for 5 minutes to pellet the cells. Supernatant was removed and cells re-infected a fresh 1 ml of viral supernatant supplemented with 8 μg/ml polybrene by centrifuging for 30 min at 1000 rpm. Cells were placed in 37° C. incubator overnight. […] After 48 hours cells were selected for retroviral infection in 10 μg/ml Blasticidin for one week. Blasticidin resistant populations were washed twice in phosphate buffered saline before plating in media lacking IL-3 to select for IL-3 independent growth.
as §1

EGFR SVD [10] = molecular target: T4, EGFR SVD; test: BaF3 cell proliferation assay, EGFR SVD (Table A); conditions: potency code, 3 days, CellTiterGlo, read-out: EGFR SVD (Activity for Inhibiting EGFR)
Procedure: as §3, §4, §1

HER2 WT [11] = molecular target: T5, HER2 WT; test: BaF3 cell proliferation assay, HER2 WT (Table B); conditions: potency code, 3 days, CellTiterGlo, read-out: HER2 WT (Activity for Inhibiting HER2)
HER2 S310F [12] = molecular target: T6, HER2 S310F; test: BaF3 cell proliferation assay, HER2 S310F (Table B); conditions: potency code, 3 days, CellTiterGlo, read-out: HER2 S310F (Activity for Inhibiting HER2)
HER2 YVMA [13] = molecular target: T7, HER2 YVMA (Homo sapiens, UniProt P04626, INS775YVMA); test: Activity for inhibiting HER2 (Table B), HER2 YVMA; conditions: read-out: HER2 YVMA, potency code (IC50)
T7 construct: expressed in transfected cells; host or cells: BaF3 (murine pro-B)
Procedure: as §1

HER2 YVMA [14] = molecular target: T7, HER2 YVMA; test: BaF3 cell proliferation assay, HER2 YVMA (Table B); conditions: potency code, 3 days, CellTiterGlo, read-out: HER2 YVMA (Activity for Inhibiting HER2)
[15] = Table B, read-out: HER2 WT, potency code (IC50)
[16] = text lists of compounds, read-out: IC50 value for inhibiting wild-type HER2

T1 sequence (P00533 25-1210 N540K): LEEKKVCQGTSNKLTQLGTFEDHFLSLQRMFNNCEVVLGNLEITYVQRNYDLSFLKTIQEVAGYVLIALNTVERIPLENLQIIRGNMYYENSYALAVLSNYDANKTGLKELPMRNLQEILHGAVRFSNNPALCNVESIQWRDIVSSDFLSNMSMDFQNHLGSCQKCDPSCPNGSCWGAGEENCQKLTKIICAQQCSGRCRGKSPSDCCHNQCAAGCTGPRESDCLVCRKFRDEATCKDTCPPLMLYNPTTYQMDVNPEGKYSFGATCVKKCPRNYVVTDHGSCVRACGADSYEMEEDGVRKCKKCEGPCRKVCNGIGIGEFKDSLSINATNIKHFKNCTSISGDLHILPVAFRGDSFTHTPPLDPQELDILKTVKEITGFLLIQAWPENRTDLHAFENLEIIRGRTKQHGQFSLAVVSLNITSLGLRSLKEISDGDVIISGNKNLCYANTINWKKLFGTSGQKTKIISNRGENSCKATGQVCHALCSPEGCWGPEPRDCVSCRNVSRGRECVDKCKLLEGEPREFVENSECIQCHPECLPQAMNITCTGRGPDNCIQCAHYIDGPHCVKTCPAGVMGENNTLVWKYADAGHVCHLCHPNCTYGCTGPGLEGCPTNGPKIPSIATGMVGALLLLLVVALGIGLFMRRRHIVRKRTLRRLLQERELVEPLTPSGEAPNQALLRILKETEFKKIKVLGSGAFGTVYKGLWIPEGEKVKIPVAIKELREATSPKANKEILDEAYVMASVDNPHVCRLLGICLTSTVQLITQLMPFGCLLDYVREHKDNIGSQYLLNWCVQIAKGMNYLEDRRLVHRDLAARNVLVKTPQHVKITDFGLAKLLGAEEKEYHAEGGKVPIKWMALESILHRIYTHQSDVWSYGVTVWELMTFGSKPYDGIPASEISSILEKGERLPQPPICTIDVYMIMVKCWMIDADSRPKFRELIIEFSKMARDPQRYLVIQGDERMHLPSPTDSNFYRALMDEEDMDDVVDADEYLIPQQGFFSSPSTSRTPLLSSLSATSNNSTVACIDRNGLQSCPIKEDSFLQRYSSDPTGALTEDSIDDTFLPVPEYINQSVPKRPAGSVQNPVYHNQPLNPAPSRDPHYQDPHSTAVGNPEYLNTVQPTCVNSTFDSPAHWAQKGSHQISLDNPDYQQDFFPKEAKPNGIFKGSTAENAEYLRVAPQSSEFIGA
T6 sequence (P04626 23-1255 S310F): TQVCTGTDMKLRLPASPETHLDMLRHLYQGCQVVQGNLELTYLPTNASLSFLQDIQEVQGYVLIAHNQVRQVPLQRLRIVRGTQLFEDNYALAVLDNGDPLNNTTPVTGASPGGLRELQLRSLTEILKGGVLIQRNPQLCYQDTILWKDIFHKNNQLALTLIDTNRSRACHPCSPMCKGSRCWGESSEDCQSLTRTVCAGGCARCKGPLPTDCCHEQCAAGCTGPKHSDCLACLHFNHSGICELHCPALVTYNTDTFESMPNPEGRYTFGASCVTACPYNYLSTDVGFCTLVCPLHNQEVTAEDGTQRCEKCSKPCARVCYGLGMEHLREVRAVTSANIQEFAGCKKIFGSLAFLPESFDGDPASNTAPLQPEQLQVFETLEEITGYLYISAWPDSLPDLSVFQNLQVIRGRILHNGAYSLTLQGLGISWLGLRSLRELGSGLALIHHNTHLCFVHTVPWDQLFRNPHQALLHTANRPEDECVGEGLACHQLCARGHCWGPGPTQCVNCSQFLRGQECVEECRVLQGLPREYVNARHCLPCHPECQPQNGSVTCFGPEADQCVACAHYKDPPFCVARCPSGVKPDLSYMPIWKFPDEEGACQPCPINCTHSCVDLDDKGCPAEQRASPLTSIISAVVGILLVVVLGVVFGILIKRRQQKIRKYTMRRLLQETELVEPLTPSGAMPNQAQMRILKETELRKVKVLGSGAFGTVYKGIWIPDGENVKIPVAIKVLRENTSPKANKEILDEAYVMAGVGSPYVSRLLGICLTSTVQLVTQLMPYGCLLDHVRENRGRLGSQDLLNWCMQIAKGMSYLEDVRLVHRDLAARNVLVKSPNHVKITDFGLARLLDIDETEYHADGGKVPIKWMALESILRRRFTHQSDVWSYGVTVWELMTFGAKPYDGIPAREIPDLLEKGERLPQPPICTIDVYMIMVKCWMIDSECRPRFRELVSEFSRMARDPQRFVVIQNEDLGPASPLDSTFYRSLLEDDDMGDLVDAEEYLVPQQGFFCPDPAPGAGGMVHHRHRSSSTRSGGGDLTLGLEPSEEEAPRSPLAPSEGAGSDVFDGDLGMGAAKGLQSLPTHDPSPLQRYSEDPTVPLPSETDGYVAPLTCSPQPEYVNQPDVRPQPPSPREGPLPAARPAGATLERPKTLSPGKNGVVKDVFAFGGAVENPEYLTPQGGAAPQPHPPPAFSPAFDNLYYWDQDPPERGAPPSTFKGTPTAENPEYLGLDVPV
T5 sequence (P04626 23-1255): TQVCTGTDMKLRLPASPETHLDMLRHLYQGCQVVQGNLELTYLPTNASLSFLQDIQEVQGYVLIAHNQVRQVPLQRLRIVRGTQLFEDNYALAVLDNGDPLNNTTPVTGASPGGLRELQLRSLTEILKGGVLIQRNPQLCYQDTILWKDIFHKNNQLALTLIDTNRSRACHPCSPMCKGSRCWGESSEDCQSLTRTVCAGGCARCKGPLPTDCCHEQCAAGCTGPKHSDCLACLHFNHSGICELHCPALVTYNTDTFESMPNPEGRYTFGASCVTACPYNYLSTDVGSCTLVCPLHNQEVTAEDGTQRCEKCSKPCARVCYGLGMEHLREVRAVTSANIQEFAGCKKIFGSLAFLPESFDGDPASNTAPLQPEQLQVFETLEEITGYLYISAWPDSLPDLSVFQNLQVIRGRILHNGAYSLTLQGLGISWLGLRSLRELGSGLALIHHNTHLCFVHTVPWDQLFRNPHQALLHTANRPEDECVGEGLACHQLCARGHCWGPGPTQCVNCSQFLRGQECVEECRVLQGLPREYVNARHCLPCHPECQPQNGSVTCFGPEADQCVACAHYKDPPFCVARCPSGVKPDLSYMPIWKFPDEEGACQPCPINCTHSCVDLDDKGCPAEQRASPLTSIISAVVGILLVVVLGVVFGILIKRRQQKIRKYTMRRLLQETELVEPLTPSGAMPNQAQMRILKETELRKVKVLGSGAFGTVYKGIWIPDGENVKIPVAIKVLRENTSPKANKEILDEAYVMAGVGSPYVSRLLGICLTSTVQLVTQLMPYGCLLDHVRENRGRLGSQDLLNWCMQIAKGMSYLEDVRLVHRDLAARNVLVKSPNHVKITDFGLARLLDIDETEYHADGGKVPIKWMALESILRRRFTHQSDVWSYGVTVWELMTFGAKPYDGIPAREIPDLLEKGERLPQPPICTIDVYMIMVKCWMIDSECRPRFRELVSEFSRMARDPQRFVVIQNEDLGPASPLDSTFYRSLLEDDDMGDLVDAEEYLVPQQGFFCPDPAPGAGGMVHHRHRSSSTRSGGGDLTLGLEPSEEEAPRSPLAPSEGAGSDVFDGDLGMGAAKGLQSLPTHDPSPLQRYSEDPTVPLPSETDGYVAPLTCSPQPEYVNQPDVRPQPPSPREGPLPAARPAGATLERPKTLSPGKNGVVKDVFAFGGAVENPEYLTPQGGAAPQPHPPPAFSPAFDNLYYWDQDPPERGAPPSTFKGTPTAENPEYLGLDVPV
T2 sequence (P00533 with tags, fused parts or gaps DELINS30-297G): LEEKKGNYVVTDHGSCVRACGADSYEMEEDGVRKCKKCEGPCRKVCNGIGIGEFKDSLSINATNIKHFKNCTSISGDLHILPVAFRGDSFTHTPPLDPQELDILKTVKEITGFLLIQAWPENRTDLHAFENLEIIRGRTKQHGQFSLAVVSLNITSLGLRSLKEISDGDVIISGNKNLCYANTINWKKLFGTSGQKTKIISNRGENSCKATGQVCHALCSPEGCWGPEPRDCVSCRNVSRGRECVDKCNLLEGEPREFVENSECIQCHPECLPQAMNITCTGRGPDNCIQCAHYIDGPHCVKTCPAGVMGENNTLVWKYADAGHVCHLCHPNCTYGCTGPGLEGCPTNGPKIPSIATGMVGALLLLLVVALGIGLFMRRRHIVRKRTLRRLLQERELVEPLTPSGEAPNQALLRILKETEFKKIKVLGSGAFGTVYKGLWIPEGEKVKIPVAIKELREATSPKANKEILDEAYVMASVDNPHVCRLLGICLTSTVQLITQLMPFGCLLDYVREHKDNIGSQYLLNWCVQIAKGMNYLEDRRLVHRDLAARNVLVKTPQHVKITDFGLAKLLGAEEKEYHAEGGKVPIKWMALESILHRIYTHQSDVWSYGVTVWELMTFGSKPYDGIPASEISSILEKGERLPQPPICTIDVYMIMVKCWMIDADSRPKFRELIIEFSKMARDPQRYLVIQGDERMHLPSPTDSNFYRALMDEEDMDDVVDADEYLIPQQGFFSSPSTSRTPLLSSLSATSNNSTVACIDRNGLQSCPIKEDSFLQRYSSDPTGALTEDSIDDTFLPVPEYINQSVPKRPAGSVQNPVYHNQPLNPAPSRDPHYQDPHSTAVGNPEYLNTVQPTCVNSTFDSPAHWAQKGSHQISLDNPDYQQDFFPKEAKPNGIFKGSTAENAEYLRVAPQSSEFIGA

| Compound | IC50 (EGFR WT [1]) [nM] | IC50 (EGFR V3 [2]) [nM] | IC50 (EGFR NPH [3]) [nM] | IC50 (EGFR SVD [4]) [nM] | IC50 (HER2 WT [5]; [15]) [nM] | IC50 (HER2 WT [5]; [16]) [nM] | IC50 (HER2 S310F [6]) [nM] | IC50 (EGFR WT [7]) [nM] | IC50 (EGFR V3 [8]) [nM] | IC50 (EGFR NPH [9]) [nM] | IC50 (EGFR SVD [10]) [nM] | IC50 (HER2 WT [11]) [nM] | IC50 (HER2 S310F [12]) [nM] | IC50 (HER2 YVMA [13]) [nM] | IC50 (HER2 YVMA [14]) [nM] |
| --- | --- | --- | --- | --- | --- | --- | --- | --- | --- | --- | --- | --- | --- | --- | --- |
| C=CC(=O)Nc1cc2c(Nc3ccc(OCc4ccccn4)c(Cl)c3)c(C#N)cnc2cc1OCCN1CCOCC1 [compound 11] | 300 to 500 | 50 to 100 | 300 to 500 | 300 to 500 | 30 to 50 | ≤ 50 | 50 to 100 | 300 to 500 | 50 to 100 | 300 to 500 | 300 to 500 | 30 to 50 | 50 to 100 |  |  |
| C=CC(=O)Nc1cc2c(Nc3ccc(OCc4ccccn4)c(Cl)c3)ncnc2cc1OCC1CCCN1 (stereo not shown) [compound 13] | 300 to 500 | 50 to 100 | 300 to 500 | 200 to 300 | 5 to 10 | ≤ 20 | 30 to 50 | 300 to 500 | 50 to 100 | 300 to 500 | 200 to 300 | 5 to 10 | 30 to 50 | 300 to 500 | 300 to 500 |
| C=CC(=O)Nc1cc2c(Nc3ccc(OCc4ccccn4)c(Cl)c3)ncnc2cc1O[C@@H]1CCN(C)C1 [compound 17] | 200 to 300 | 10 to 20 | 20 to 30 | 10 to 20 | < 5 | ≤ 5 | 5 to 10 | 200 to 300 | 10 to 20 | 20 to 30 | 10 to 20 | < 5 | 5 to 10 | 30 to 50 | 30 to 50 |
| C=CC(=O)Nc1cc2c(Nc3ccc(OCc4ccccn4)c(Cl)c3)ncnc2cc1OCCCN1CCN(C)CC1 [compound 69] | 300 to 500 | 10 to 20 | 20 to 30 | 20 to 30 |  |  | 10 to 20 | 300 to 500 | 10 to 20 | 20 to 30 | 20 to 30 |  | 10 to 20 | 20 to 30 | 20 to 30 |
